Measured values: ChEMBL document CHEMBL1201862, “PubChem BioAssay data set” (2004)
The source made the active and inactive calls.

Columns and labels:
[1] = target: Mucolipin-3 (Homo sapiens, UniProt Q8TDD5); assay: Dose response cell-based high-throughput screening assay for agonists of the transient receptor potential channel ML3 (TRPML3). [Related pubchem assays: 1526, 1424, 1448 ]; assay type: functional
[2] = target: Ion channel NompC (Danio rerio, UniProt Q7T1G6); assay: Fluorescence counterscreen assay for TRPML3 agonists: dose response cell-based high-throughput screening assay to identify agonists of the transient receptor potential channel N1 (TRPN1). [Related pubchem assays: 1526, 1424, 1448 ]; assay type: functional
[3] = target: T1, Tyrosine-protein phosphatase non-receptor type 7 (Homo sapiens, UniProt P35236); assay: HePTP tyrosine phosphatase activity blockers – biochemical, absorbance, leukemia target, primary screen (AID 521); assay type: functional
T1 sequence (P35236 whole entry): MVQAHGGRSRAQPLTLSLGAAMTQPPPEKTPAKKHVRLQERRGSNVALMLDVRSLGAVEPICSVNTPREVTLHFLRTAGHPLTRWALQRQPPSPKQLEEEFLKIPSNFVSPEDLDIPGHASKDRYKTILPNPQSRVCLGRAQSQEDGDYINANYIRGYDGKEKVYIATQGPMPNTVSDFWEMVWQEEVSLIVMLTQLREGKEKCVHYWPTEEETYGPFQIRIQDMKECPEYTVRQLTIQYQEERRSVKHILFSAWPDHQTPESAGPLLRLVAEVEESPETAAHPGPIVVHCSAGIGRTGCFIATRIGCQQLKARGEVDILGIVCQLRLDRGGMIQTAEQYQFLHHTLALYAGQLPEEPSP

[4] = target: Bcl-2-like protein 10 (Homo sapiens, UniProt Q9HD36); assay: Bcl-B/TR3 peptide binding disruption – biochemical, fluorescence polarization, FITC-TR3 peptide, selectivity assay for Bfl-1 inhibitor project, primary screen (AID 748);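 also: fluorescence polarization from a fluorescein-labelled TR3 peptide binding purified Bcl-B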
[5] = target: T2, Dual specificity protein phosphatase 6 (Rattus norvegicus, UniProt Q64346); assay: inhibition of rat DUSP6 enzyme activity – biochemical, in vitro, primary screen (AID 425)
T2 sequence (Q64346 whole entry): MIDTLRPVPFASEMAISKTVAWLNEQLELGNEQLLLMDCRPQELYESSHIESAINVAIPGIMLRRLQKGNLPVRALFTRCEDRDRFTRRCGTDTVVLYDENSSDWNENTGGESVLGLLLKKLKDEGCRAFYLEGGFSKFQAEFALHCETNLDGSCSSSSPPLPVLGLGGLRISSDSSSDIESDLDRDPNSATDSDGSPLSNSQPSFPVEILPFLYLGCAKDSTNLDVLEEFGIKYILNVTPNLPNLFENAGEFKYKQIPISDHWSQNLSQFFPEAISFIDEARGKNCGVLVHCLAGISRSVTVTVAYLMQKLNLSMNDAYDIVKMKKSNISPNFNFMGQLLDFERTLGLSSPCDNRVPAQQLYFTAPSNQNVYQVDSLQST

[6] = target: Eukaryotic translation initiation factor 4E (Mus musculus, UniProt P63073); assay: blockers of eIF4G binding by eIF4E – biochemical, TR-FRET, dose response (AID 855); assay type: functional;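 also: potency for disrupting eIF4E binding to eIF4GI seen as loss of FRET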
[7] = target: T3, Coagulation factor XII (Homo sapiens, UniProt P00748); assay: activated coagulation factor XII inhibitor potency, concentration-effect curve, cell-free (AID 716); assay type: functional
T3 sequence (P00748 whole entry): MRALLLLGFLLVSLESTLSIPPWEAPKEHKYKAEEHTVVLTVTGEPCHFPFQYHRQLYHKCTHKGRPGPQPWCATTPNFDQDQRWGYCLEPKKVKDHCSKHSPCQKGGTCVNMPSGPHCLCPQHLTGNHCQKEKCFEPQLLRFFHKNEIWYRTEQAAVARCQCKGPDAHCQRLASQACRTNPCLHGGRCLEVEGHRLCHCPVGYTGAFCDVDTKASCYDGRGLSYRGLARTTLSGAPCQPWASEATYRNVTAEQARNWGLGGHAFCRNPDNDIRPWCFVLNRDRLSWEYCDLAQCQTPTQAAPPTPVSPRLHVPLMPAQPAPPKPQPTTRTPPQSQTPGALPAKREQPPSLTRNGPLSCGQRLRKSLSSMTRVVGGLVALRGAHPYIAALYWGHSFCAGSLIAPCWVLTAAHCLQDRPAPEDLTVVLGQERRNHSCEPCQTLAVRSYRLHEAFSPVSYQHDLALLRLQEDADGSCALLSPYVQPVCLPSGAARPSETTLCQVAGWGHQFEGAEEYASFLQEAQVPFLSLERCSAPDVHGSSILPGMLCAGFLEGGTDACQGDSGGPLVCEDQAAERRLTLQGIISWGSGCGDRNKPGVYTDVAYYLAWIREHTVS

[8] = target: NADPH oxidase 1 (Homo sapiens, UniProt Q9Y5S8); assay type: functional, cell-based;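 also: Cell-based assay with luminescence read-out, IC50 derived from inhibitor dose-response curves; intracellular ROS from endogenous NOX1 in intact HT29 colon cancer cells; potency of inhibitors that lower the ROS luminescence signal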
[9] = target: Glyceraldehyde-3-phosphate dehydrogenase (Homo sapiens, UniProt P04406)
[10] = target: T4, Alkaline phosphatase, tissue-nonspecific isozyme (Homo sapiens, UniProt P05186); assay: potency against alkaline phosphatase TNAP – biochemical, luminescent, dose response, SAR follow-up (AID 1056)
T4 sequence (P05186 whole entry): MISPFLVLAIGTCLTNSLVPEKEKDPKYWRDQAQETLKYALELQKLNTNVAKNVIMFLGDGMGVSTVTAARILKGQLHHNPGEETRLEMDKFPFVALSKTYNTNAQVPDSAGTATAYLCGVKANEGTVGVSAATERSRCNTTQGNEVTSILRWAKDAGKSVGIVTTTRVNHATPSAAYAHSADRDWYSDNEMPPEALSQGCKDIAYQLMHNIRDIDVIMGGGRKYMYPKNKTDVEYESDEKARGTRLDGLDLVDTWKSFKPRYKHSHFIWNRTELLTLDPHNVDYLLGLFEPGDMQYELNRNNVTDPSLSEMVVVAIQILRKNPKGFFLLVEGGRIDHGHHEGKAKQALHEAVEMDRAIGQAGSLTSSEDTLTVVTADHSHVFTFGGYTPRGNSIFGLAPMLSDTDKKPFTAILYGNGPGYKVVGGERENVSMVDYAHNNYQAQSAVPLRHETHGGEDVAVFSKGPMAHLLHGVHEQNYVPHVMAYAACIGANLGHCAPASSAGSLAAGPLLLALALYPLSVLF

[11] = target: T5, Estrogen receptor beta (Homo sapiens, UniProt Q92731);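 also: recombinant ER-beta bound to coactivator SRC1 peptide in presence of estradiol agonist; inhibitors block coactivator peptide binding and lower the FRET signal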
[12] = target: T5, Estrogen receptor beta; assay: blockers of SRC-3 recruitment to ERβ – biochemical, ELISA, streptavidin-HRP readout, orthogonal assay, confirmation (AID 1060)
[13] = target: Acyl-homoserine lactone acylase PvdQ (Pseudomonas aeruginosa (strain LESB58), UniProt Q9I194); assay: PvdQ acylase enzyme activity blockers – biochemical, fluorescence, plate reader and imaging, cherry-picks, dose response (AID 493231)
Acyl-homoserine lactone acylase PvdQ, sequence (Q9I194 24-193 limits assumed): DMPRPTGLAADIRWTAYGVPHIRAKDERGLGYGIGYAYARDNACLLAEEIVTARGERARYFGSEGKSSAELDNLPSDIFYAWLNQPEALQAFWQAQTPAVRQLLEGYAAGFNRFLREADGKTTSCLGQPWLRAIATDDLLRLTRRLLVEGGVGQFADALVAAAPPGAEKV
Acyl-homoserine lactone acylase PvdQ, sequence (Q9I194 217-762 limits assumed): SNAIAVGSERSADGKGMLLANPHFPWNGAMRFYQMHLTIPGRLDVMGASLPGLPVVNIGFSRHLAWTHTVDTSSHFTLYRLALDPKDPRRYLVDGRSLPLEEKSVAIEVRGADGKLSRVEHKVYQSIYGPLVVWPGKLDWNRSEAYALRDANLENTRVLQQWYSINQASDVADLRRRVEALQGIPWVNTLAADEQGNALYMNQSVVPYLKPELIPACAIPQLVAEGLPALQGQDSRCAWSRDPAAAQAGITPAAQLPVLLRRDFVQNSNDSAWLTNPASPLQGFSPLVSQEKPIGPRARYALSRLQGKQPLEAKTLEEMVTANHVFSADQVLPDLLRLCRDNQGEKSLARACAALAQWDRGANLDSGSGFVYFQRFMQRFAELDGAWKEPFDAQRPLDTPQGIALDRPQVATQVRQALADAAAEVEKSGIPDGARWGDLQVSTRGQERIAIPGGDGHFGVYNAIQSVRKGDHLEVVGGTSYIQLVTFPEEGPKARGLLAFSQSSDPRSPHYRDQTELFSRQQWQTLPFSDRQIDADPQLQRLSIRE

T5 sequence (Q92731 whole entry): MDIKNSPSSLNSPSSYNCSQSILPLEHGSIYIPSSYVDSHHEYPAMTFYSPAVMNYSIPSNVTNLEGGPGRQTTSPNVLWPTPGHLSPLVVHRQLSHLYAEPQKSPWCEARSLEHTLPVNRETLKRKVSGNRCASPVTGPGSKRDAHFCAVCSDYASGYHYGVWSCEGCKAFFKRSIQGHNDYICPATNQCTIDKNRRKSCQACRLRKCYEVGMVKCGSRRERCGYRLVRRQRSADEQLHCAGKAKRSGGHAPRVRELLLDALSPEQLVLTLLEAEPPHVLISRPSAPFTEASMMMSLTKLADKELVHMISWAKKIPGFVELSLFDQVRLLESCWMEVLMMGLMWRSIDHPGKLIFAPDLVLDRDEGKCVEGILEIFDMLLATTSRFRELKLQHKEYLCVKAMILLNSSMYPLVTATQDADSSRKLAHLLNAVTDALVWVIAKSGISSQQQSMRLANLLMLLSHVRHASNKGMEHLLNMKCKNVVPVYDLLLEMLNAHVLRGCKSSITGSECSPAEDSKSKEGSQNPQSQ
NADPH oxidase 1, sequence (Q9Y5S8 whole entry): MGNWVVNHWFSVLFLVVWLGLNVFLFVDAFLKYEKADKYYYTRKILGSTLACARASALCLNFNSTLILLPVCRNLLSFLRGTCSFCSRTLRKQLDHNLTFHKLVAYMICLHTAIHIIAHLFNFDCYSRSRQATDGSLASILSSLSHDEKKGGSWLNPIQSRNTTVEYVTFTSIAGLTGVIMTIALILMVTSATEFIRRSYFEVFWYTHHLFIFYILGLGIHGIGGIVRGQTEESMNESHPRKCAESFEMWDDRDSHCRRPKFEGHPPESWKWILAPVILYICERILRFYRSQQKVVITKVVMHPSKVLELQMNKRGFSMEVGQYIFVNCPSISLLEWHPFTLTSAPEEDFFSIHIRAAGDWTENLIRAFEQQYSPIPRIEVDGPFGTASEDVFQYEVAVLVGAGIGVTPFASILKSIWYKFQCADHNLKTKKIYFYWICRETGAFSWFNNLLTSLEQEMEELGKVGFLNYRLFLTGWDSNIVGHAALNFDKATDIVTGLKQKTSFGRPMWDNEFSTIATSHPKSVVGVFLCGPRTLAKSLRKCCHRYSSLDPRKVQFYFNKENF
Ion channel NompC, sequence (Q7T1G6 whole entry): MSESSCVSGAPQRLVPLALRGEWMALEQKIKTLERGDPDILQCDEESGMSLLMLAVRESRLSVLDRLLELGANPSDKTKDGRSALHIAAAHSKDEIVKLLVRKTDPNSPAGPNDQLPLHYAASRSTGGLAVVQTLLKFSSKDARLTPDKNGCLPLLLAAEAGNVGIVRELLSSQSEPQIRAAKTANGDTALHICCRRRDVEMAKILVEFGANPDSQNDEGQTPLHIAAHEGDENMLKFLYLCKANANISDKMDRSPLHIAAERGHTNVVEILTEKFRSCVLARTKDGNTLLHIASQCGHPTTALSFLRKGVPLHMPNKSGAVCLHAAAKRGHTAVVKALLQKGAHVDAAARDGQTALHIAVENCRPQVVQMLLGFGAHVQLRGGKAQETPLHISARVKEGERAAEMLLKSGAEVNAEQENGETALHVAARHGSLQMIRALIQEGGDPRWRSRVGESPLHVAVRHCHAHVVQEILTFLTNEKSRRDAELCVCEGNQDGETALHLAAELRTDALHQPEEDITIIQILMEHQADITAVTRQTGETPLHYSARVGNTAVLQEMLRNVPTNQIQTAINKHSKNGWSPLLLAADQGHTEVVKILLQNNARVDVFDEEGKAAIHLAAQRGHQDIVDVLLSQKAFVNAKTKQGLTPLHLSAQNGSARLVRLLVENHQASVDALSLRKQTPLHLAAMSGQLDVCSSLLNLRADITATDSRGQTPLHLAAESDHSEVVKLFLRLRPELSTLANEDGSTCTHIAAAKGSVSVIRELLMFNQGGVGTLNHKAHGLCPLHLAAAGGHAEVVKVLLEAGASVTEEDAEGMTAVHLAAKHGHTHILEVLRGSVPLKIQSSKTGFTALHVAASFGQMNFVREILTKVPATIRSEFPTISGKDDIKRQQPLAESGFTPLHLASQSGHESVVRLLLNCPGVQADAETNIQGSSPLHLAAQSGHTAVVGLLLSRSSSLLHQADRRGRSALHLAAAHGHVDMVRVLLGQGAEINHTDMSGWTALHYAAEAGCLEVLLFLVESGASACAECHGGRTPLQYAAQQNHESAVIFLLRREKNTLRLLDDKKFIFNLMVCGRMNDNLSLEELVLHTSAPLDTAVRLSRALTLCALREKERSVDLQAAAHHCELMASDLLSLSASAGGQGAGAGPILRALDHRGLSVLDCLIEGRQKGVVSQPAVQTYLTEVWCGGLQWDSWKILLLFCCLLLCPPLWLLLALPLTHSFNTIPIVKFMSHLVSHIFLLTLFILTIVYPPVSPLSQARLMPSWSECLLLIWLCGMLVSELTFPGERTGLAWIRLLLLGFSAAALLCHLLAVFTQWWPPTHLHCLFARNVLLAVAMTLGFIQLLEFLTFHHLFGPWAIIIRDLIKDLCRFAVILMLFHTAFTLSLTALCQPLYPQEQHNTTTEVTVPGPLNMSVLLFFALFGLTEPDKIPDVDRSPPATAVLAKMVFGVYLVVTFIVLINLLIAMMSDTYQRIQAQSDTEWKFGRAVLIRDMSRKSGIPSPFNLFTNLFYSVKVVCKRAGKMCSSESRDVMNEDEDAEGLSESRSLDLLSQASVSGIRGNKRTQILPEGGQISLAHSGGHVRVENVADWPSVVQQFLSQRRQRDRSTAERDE
Bcl-2-like protein 10, sequence (Q9HD36 whole entry): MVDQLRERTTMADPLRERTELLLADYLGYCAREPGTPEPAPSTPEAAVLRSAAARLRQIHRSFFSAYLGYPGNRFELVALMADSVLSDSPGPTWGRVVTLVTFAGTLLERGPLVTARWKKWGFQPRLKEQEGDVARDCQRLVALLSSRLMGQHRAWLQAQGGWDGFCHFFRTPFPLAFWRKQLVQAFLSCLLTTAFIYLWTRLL
Mucolipin-3, sequence (Q8TDD5 whole entry): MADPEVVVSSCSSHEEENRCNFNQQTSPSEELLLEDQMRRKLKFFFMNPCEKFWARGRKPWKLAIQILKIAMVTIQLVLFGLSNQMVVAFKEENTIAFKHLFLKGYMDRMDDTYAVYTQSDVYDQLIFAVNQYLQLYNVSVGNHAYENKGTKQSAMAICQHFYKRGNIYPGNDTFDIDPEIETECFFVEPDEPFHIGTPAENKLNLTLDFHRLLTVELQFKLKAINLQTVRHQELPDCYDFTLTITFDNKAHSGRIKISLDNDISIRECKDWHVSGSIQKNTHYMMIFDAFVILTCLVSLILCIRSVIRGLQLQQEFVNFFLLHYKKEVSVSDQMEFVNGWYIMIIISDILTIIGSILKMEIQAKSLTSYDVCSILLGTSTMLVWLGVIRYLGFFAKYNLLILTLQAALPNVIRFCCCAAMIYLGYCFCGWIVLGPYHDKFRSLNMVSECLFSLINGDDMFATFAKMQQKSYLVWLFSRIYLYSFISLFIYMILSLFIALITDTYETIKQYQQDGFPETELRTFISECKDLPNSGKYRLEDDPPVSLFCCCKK
Eukaryotic translation initiation factor 4E, sequence (P63073 whole entry): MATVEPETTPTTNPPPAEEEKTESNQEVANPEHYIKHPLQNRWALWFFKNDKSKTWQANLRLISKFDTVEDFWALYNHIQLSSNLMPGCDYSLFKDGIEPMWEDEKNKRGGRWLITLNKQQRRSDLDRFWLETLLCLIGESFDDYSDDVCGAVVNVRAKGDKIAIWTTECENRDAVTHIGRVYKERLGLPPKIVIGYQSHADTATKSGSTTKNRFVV
Glyceraldehyde-3-phosphate dehydrogenase, sequence (P04406 whole entry): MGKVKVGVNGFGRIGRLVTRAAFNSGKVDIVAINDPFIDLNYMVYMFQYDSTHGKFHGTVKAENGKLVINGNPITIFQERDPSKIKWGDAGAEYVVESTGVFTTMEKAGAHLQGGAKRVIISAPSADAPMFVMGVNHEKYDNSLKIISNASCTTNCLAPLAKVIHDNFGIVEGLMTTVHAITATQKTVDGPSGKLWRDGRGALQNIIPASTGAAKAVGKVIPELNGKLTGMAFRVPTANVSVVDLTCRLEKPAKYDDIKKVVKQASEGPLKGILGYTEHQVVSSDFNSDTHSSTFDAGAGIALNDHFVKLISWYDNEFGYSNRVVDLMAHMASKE

For `O=S(=O)(Oc1ccccc1N1CCCCC1)c1ccccc1`, the EC50 [1] was > 29.9 µM (not active) and the EC50 [2] was > 29.9 µM (not active).

With `O=C(OC1CCCCC1)c1ccc2c(c1)C1C=CCC1C(C(=O)O)N2` (stereo not given) the IC50 [3] was 0.84 µM (active), the IC50 [4] was 2 µM (active) and the IC50 [5] was 1.83 µM (active). For the same compound, the IC50 [6] was 5.02 µM (active).

`O=C(NCC1CCCO1)c1ccc(COCC(F)(F)C(F)F)cc1` (stereo not given) was tested, and the IC50 [7] was > 50 µM (inactive).

With `COc1cc([N+](=O)[O-])ccc1NC(=O)Nc1ccc(Oc2ccccc2)cc1` the IC50 [8] was > 17 µM (not active).

With `O=S(=O)(Nc1cnc2ccccc2c1)c1cc(Cl)cc(Cl)c1O` the IC50 [9] was > 100 µM (not active) and the IC50 [10] was 69.6 µM (active).

In the case of `COc1cc(CCC(=O)OCC(=O)Nc2ncc(Cl)cc2Cl)cc(OC)c1OC`, the IC50 [11] is reported as 9.58 µM (active) and the IC50 [12] is reported as 102 µM (not active).

In the case of `COc1ccc(C(C#N)c2ccc(Cl)nn2)cc1` (stereo not given), the AC50 [13] is reported as 6.48 µM (active).

In the case of `N#CC(c1ccc(Cl)nn1)c1c(F)cccc1Cl` (stereo not given), the AC50 [13] is reported as 4.04 µM (active).

With `C=C(NNc1c(F)c(F)nc(F)c1F)c1ccncc1` the IC50 [8] was > 17 µM (not active).
